Assay results from EP1247803A2, “Indolinone compounds suitable for modulation of protein kinases” (Sugen, Inc., priority 1996, dated 1998).

Tests used:
PDGF-R = PDGF-R (Homo sapiens, UniProt P09619); assay: PDGF-R ELISA; assay type: cell-based
Source text: A PDGF-R ELISA is described in International Patent Publication No. WO 96/40116, published December 19, 1996 by Tang et al.

EGFR = target: T1, EGFR (Homo sapiens, UniProt P00533); assay: EGFR ELISA assay (in vitro kinase activity, EGFR captured from A431 cell lysate); assay type: biochemical; set-up: concentration or dose not given beside the values
T1 construct: Add 7 ug A431 cell lysate per well (EGFR source); endogenous in cells; host or cells: A431
T1 sequence (P00533 25-1210): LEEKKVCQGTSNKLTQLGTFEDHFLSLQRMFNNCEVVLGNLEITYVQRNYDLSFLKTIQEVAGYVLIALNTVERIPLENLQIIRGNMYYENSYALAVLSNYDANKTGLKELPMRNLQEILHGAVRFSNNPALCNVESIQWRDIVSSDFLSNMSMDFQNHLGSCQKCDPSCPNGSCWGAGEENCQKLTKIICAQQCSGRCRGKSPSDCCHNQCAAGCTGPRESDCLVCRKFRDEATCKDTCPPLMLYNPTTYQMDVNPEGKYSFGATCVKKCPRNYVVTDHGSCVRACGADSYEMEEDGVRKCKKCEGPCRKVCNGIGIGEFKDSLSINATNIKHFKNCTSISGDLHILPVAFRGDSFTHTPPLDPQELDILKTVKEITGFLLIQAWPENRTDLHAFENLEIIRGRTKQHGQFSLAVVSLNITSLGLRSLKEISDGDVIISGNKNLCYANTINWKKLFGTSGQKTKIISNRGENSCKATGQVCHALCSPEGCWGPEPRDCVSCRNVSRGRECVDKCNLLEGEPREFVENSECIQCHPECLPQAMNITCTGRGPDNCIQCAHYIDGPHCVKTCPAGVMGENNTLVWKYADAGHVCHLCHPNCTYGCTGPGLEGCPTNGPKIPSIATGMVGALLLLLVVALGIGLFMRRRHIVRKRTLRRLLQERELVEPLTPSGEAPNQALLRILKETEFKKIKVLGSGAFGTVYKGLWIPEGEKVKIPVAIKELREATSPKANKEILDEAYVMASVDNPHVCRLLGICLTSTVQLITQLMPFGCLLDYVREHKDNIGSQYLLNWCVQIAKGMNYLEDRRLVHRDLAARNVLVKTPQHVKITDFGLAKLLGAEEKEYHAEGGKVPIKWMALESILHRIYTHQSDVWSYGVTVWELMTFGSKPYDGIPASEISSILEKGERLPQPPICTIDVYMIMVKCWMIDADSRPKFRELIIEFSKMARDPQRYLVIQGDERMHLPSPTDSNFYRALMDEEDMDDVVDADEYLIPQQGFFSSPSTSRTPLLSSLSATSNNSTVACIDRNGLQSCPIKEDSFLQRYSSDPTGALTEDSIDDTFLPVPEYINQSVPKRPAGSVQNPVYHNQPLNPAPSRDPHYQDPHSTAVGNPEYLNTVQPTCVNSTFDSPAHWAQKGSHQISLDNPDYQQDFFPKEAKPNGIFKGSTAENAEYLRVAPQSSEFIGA
Method in brief: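 EGFR from A431 lysate was captured on plates coated with anti-EGFR antibody. Compounds were added 30 min before a 5 min phosphorylation with 3 µM ATP/5 mM MnCl2, which was stopped with 20 mM EDTA. Phosphotyrosine was detected with rabbit anti-phosphotyrosine, then a peroxidase-conjugated secondary and ABTS/H2O2, read at 410 nm.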

Sequence of PDGF-R (P09619 33-1106, species assumed): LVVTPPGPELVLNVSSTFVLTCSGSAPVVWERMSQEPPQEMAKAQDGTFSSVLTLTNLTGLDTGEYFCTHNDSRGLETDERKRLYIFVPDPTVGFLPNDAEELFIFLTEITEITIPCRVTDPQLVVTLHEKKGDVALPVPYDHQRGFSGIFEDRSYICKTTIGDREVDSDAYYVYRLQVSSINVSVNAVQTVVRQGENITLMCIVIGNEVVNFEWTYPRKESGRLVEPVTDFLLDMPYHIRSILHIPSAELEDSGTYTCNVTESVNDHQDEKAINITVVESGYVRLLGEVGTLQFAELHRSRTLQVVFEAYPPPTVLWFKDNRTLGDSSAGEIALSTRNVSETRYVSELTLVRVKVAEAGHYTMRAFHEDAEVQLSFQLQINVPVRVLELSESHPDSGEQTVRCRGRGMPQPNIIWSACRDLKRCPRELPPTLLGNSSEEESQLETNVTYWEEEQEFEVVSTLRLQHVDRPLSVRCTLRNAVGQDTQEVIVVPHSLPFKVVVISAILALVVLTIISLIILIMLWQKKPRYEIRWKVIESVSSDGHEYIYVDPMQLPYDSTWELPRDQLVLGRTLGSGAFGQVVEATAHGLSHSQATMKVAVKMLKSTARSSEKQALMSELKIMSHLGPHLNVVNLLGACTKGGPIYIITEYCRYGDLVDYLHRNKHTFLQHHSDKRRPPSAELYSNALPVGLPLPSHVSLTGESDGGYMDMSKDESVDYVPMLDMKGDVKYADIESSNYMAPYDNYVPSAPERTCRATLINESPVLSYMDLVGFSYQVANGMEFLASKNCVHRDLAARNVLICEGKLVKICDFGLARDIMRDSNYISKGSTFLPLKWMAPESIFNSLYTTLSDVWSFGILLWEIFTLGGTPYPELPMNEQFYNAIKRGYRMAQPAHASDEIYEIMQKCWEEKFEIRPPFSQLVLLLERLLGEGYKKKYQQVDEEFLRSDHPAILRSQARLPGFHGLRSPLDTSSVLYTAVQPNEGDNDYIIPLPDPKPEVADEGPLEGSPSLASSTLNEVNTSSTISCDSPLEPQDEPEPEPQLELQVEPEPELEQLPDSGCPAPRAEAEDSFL

Structure (SMILES)	PDGF Kinase %Inhibition (PDGF-R) [%]	Biochem EGFR %Inhibition (EGFR) [%]
COc1c([N+](=O)[O-])cc(C=C2C(=O)Nc3ccc(Br)c(C)c32)cc1C(C)(C)C [10733/C03]	28.1	14.4
CNS(=O)(=O)c1ccc2c(c1)C(=Cc1cc(C(C)(C)C)c(OC)c(C(C)(C)C)c1)C(=O)N2 [10733/D04]	26.5	19.9
Cc1c(Br)ccc2c1C(=Cc1cc(C(C)(C)C)c(OCc3ccccc3)c(C(C)(C)C)c1)C(=O)N2 [10733/C05]	11.1	17.2
CC(C)(C)c1cc(C=C2C(=O)Nc3ccc(S(=O)(=O)Nc4ccc(C(F)(F)F)cc4)cc32)cc(Cl)c1OCc1ccccc1 [10732/E10]	35.6	-3.3
Cc1cc(C=C2C(=O)Nc3ccc(Br)c(C)c32)cc(C)c1OCc1ccccc1 [10733/C07]	4.6	16.7
COc1c(C)cc(C=C2C(=O)Nc3c(Br)cc(Br)cc32)cc1C [10733/A06]	-24.3	45.1
COc1c(I)cc(C=C2C(=O)Nc3ccc(S(=O)(=O)Nc4ccc(C(F)(F)F)cc4)cc32)cc1C(C)(C)C [10732/E11]	47.7	-32.2
CC(C)c1cc(C=C2C(=O)Nc3ccc(S(=O)(=O)Nc4ccc(C(F)(F)F)cc4)cc32)cc(C(C)C)c1Oc1ccccc1 [10732/E04]	29.5	-10.6
COc1c(Br)cc(C=C2C(=O)Nc3ccc(S(=O)(=O)Nc4ccc(C(F)(F)F)cc4)cc32)cc1C(C)(C)C [10732/E07]	42.2	-8.5
CNS(=O)(=O)c1ccc2c(c1)C(=Cc1ccco1)C(=O)N2 [10718/D10]		12.3
COc1c(C(C)C)cc(C=C2C(=O)Nc3ccc(CCCl)cc32)cc1C(C)C [10732/G03]	36.1	-20.0
CC(C)c1cc(C=C2C(=O)Nc3ccc(CCCl)cc32)cc(C(C)C)c1Oc1ccccc1 [10732/G04]	25.0	8.0
CNS(=O)(=O)c1ccc2c(c1)C(=Cc1cc(C)c(OC)c(C)c1)C(=O)N2 [10733/D06]	1.3	30.8
COc1c(I)cc(C=C2C(=O)Nc3ccc(CCCl)cc32)cc1C(C)(C)C [10732/G11]	38.6	-33.7
O=C1Nc2ccc(I)cc2C1=Cc1cc(Br)ccc1O [10733/B09]	7.0	21.1
CNS(=O)(=O)c1ccc2c(c1)C(=Cc1cc(I)c(OC)c(C(C)(C)C)c1)C(=O)N2 [10732/D11]	18.9	-13.4
CC(C)(C)c1cc(C=C2C(=O)Nc3ccc(I)cc32)cc(C(C)(C)C)c1OCc1ccccc1 [10733/B05]	27.3	26.7
COc1c(C)cc(C=C2C(=O)Nc3ccc(Br)c(C)c32)cc1C [10733/C06]	20.0	22.7
CNS(=O)(=O)c1ccc2c(c1)C(=Cc1cc(I)c(OCc3ccccc3)c(C(C)(C)C)c1)C(=O)N2 [10733/D02]	17.6	12.5
Cc1c(Br)ccc2c1C(=Cc1cc([N+](=O)[O-])ccc1O)C(=O)N2 [10733/C10]	-6.4	36.0
COc1c(O)ccc(C=C2C(=O)Nc3ccc(Br)c(C)c32)c1[N+](=O)[O-] [10733/C11]	62.2	15.8
Cc1cc(C=C2C(=O)Nc3ccc(I)cc32)cc(C)c1OCc1ccccc1 [10733/B07]	4.2	32.7
CNS(=O)(=O)c1ccc2c(c1)C(=Cc1ccc(O)c(OC)c1[N+](=O)[O-])C(=O)N2 [10733/D11]	-4.0	33.7
COc1c([N+](=O)[O-])cc(C=C2C(=O)Nc3ccc(I)cc32)cc1C(C)(C)C [10733/B03]	35.8	14.4
CC(C)(C)c1cc(C=C2C(=O)Nc3ccc(I)cc32)cc(I)c1OCc1ccccc1 [10733/B02]	14.7	31.6

Structure (SMILES)	PDGF Kinase %Inhibition (PDGF-R) [%]	Biochem EGFR %Inhibition (EGFR) [%]
CC(C)(C)c1cc(C=C2C(=O)Nc3ccc(S(=O)(=O)Nc4ccc(C(F)(F)F)cc4)cc32)cc(I)c1OCc1ccccc1 [10733/E02]	20.8	-1.3
COc1c(O)ccc(C=C2C(=O)Nc3c(Br)cc(Br)cc32)c1[N+](=O)[O-] [10733/A11]	4.2	23.0
COc1c(Cl)cc(C=C2C(=O)Nc3ccc(S(=O)(=O)Nc4ccc(C(F)(F)F)cc4)cc32)cc1C(C)(C)C [10732/E09]	46.7	-7.2
O=C1Nc2ccc(S(=O)(=O)Nc3ccc(C(F)(F)F)cc3)cc2C1=CC(c1cccs1)C(F)(F)F (stereo not drawn) [10732/E02]	4.8	0.8
CNS(=O)(=O)c1ccc2c(c1)C(=Cc1cc(Br)cc(OC)c1O)C(=O)N2 [10733/D08]	42.3	38.3
COc1c(Cl)cc(C=C2C(=O)Nc3ccc(S(=O)(=O)N4CCOCC4)cc32)cc1C(C)(C)C [10732/F09]	25.5	-13.4
COc1c(Br)cc(C=C2C(=O)Nc3ccc(S(=O)(=O)N4CCOCC4)cc32)cc1C(C)(C)C [10732/F07]	38.6	-12.5
CNS(=O)(=O)c1ccc2c(c1)C(=Cc1cc([N+](=O)[O-])ccc1O)C(=O)N2 [10733/D10]	-10.1	46.8
CNS(=O)(=O)c1ccc2c(c1)C(=Cc1cc([N+](=O)[O-])c(OC)c(C(C)(C)C)c1)C(=O)N2 [10733/D03]	40.7	11.2
COc1cccc(O)c1C=C1C(=O)Nc2c(Br)cc(Br)cc21 [10717/A10]		8.1
COc1c(C(C)C)cc(C=C2C(=O)Nc3ccc(S(=O)(=O)Nc4ccc(C(F)(F)F)cc4)cc32)cc1C(C)C [10732/E03]	48.7	-1.6
CC(C)(C)c1cc(C=C2C(=O)Nc3ccc(S(=O)(=O)N4CCOCC4)cc32)ccc1OCc1ccccc1 [10732/F06]	0.2	-8.0
COc1cc(Br)c(O)c(C=C2C(=O)Nc3ccc(S(=O)(=O)Nc4ccc(C(F)(F)F)cc4)cc32)c1 [10718/E03]		50.4
Cc1c(Br)ccc2c1C(=Cc1cc(Br)ccc1O)C(=O)N2 [10733/C09]	91.9	46.0
O=C1Nc2c(Br)cc(Br)cc2C1=Cc1cc([N+](=O)[O-])ccc1O [10733/A10]	-13.3	14.2
CNS(=O)(=O)c1ccc2c(c1)C(=Cc1c(C)[nH]c(C(=O)OC)c1C(=O)OC)C(=O)N2 [10718/D07]		5.6
COc1c([N+](=O)[O-])cc(C=C2C(=O)Nc3c(Br)cc(Br)cc32)cc1C(C)(C)C [10733/A03]	23.2	33.6
COc1ccc(C=C2C(=O)Nc3ccc(S(=O)(=O)Nc4ccc(C(F)(F)F)cc4)cc32)cc1C(C)(C)C [10732/E05]	41.1	-17.0
COc1c(Cl)cc(C=C2C(=O)Nc3ccc(CCCl)cc32)cc1C(C)(C)C [10732/G09]	9.8	-34.8
CNS(=O)(=O)c1ccc2c(c1)C(=Cc1cc(Br)ccc1O)C(=O)N2 [10733/D09]	33.8	48.3
CCOC(=O)c1c(C)[nH]c(C=C2C(=O)Nc3ccc(S(=O)(=O)Nc4ccc(C(F)(F)F)cc4)cc32)c1C [10718/E02]		1.0
CNS(=O)(=O)c1ccc2c(c1)C(=Cc1ccc(Cl)c([N+](=O)[O-])c1)C(=O)N2 [10718/D08]		3.0
CNS(=O)(=O)c1ccc2c(c1)C(=Cc1ccc([N+](=O)[O-])o1)C(=O)N2 [10718/D11]		5.4
CNS(=O)(=O)c1ccc2c(c1)C(=Cc1ccc(O)c(C)c1O)C(=O)N2 [10718/D09]		6.0
